# Measurements from patent publication US10405547B2, “Substituted cyclic amides as herbicides” (FMC Corporation, priority 2015, dated 2019).
# Experiments:
# Type in all cases: in vivo
# Conditions in all cases: 0 to 100 scale (0 no effect, 100 complete control)
# [1] = tested on: barnyardgrass (Echinochloa crus-galli); assay: Test A preemergence, barnyardgrass
# Description: (§1) Test A Seeds of plant species selected from barnyardgrass (Echinochloa crus-galli), kochia (Kochia scoparia), ragweed (common ragweed, Ambrosia elatior), ryegrass, Italian (Lolium multiflorum), foxtail, giant (Setaria faberii), and pigweed (Amaranthus retroflexus), were planted into a blend of loam soil and sand and treated preemergence with a directed soil spray using test chemicals formulated in a non-phytotoxic solvent mixture which included a surfactant.
# (§2) At the same time, plants selected from these weed species and also blackgrass (Alopecurus myosuroides), galium (catchweed bedstraw, Galium aparine), wheat (Triticum aestivum), and corn (Zea mays) were planted in pots containing the same blend of loam soil and sand and treated with postemergence applications of test chemicals formulated in the same manner. Plants ranged in height from 2 to 10 cm and were in the one- to two-leaf stage for the postemergence treatment. Treated plants and untreated controls were maintained in a greenhouse for approximately 10 days, after which time all treated plants were compared to untreated controls and visually evaluated for injury. Plant response ratings, summarized in Table A, are based on a 0 to 100 scale where 0 is no effect and 100 is complete control. A dash (-) response means no test result.
# kochia (Kochia scoparia) [2] = assay: Test A preemergence, kochia
# Description: as §1, §2
# [3] = tested on: ragweed (common ragweed, Ambrosia elatior); assay: Test A preemergence, ragweed
# Description: as §1, §2
# [4] = tested on: ryegrass, Italian (Lolium multiflorum); assay: Test A preemergence, Italian ryegrass
# Description: as §1, §2
# [5] = tested on: foxtail, giant (Setaria faberii); assay: Test A preemergence, giant foxtail
# Description: as §1, §2
# [6] = tested on: pigweed (Amaranthus retroflexus); assay: Test A preemergence, pigweed
# Description: as §1, §2
# [7] = tested on: barnyardgrass (Echinochloa crus-galli); assay: Test A postemergence, barnyardgrass
# Description: as §1, §2
# kochia (Kochia scoparia) [8] = assay: Test A postemergence, kochia
# Description: as §1, §2
# [9] = tested on: ragweed (common ragweed, Ambrosia elatior); assay: Test A postemergence, ragweed
# Description: as §1, §2
# [10] = tested on: ryegrass, Italian (Lolium multiflorum); assay: Test A postemergence, Italian ryegrass
# Description: as §1, §2
# [11] = tested on: foxtail, giant (Setaria faberii); assay: Test A postemergence, giant foxtail
# Description: as §1, §2
# [12] = tested on: pigweed (Amaranthus retroflexus); assay: Test A postemergence, pigweed
# Description: as §1, §2
# [13] = tested on: blackgrass (Alopecurus myosuroides); assay: Test A postemergence, blackgrass
# Description: as §1, §2
# [14] = tested on: galium (catchweed bedstraw, Galium aparine); assay: Test A postemergence, galium
# Description: as §1, §2
# [15] = tested on: wheat (Triticum aestivum); assay: Test A postemergence, wheat
# Description: as §1, §2
# corn (Zea mays) = assay: Test A postemergence, corn
# Description: as §1, §2
# [16] = 125 g ai/ha, visual injury, approximately 10 days
# [17] = 500 g ai/ha, visual injury, approximately 10 days
Structure (SMILES),"Plant response rating, Barnyardgrass ([1]; 125 g ai/ha)","Plant response rating, Barnyardgrass ([1]; 500 g ai/ha)","Plant response rating, Kochia (kochia (Kochia scoparia) [2]; 125 g ai/ha)","Plant response rating, Kochia (kochia (Kochia scoparia) [2]; 500 g ai/ha)","Plant response rating, Ragweed ([3]; 125 g ai/ha)","Plant response rating, Ragweed ([3]; 500 g ai/ha)","Plant response rating, Ryegrass, Italian ([4]; 125 g ai/ha)","Plant response rating, Ryegrass, Italian ([4]; 500 g ai/ha)","Plant response rating, Foxtail, Giant ([5]; 125 g ai/ha)","Plant response rating, Pigweed ([6]; 125 g ai/ha)","Plant response rating, Barnyardgrass [7, 16]","Plant response rating, Kochia (kochia (Kochia scoparia) [8]; [16])","Plant response rating, Ragweed [9, 16]","Plant response rating, Ryegrass, Italian [10, 16]","Plant response rating, Foxtail, Giant [11, 16]","Plant response rating, Pigweed [12, 16]","Plant response rating, Blackgrass [13, 16]","Plant response rating, Galium [14, 16]","Plant response rating, Wheat [15, 16]","Plant response rating, Corn (corn (Zea mays); [16])",also measured
O=C1NCC(c2cccc(COc3ccccc3)c2)C1C(=O)Nc1ccccc1F (centres unmarked) [Compound 19],30,70,0,40,0,0,0,0,30,0,20,0,0,0,20,0,0,0,0,0,"Plant response rating, Foxtail, Giant ([5]; 500 g ai/ha): 80; Plant response rating, Pigweed ([6]; 500 g ai/ha): 0; Plant response rating, Barnyardgrass [7, 17]: 50; Plant response rating, Kochia (kochia (Kochia scoparia) [8]; [17]): 0; Plant response rating, Ragweed [9, 17]: 0; Plant response rating, Ryegrass, Italian [10, 17]: 0; Plant response rating, Foxtail, Giant [11, 17]: 40; Plant response rating, Pigweed [12, 17]: 0; Plant response rating, Blackgrass [13, 17]: 0; Plant response rating, Galium [14, 17]: 0; Plant response rating, Wheat [15, 17]: 0; Plant response rating, Corn (corn (Zea mays); [17]): 0"
O=C1NCC(c2cccc(COc3ccccc3)c2)C1C(=O)Nc1cccc(F)c1F (centres unmarked) [Compound 21],0,40,0,20,0,0,0,0,20,0,20,0,0,0,30,0,0,0,0,0,"Plant response rating, Foxtail, Giant ([5]; 500 g ai/ha): 60; Plant response rating, Pigweed ([6]; 500 g ai/ha): 0; Plant response rating, Barnyardgrass [7, 17]: 20; Plant response rating, Kochia (kochia (Kochia scoparia) [8]; [17]): 0; Plant response rating, Ragweed [9, 17]: 0; Plant response rating, Ryegrass, Italian [10, 17]: 0; Plant response rating, Foxtail, Giant [11, 17]: 30; Plant response rating, Pigweed [12, 17]: 0; Plant response rating, Blackgrass [13, 17]: 0; Plant response rating, Galium [14, 17]: 0; Plant response rating, Wheat [15, 17]: 0; Plant response rating, Corn (corn (Zea mays); [17]): 0"
O=C1NCC(c2cccc(COc3ccccc3)c2)C1C(=O)Nc1ccc(F)c(F)c1F (centres unmarked) [Compound 17],20,70,0,30,0,0,0,0,50,0,30,0,0,0,30,0,0,50,0,0,"Plant response rating, Foxtail, Giant ([5]; 500 g ai/ha): 80; Plant response rating, Pigweed ([6]; 500 g ai/ha): 0; Plant response rating, Barnyardgrass [7, 17]: 40; Plant response rating, Kochia (kochia (Kochia scoparia) [8]; [17]): 0; Plant response rating, Ragweed [9, 17]: 0; Plant response rating, Ryegrass, Italian [10, 17]: 0; Plant response rating, Foxtail, Giant [11, 17]: 40; Plant response rating, Pigweed [12, 17]: 0; Plant response rating, Blackgrass [13, 17]: 0; Plant response rating, Galium [14, 17]: 30; Plant response rating, Wheat [15, 17]: 0; Plant response rating, Corn (corn (Zea mays); [17]): 0"
"CN1CC(c2cccc(Oc3ncc(F)cc3F)c2)C(C(=O)Nc2ccccc2F)C1=O (single isomer, unassigned) [Compound 72]",90,–,0,–,0,–,50,–,90,0,90,20,30,50,90,30,60,60,20,20,"Plant response rating, Barnyardgrass ([1]; 31 g ai/ha): 90; Plant response rating, Kochia (kochia (Kochia scoparia) [2]; 31 g ai/ha): 0; Plant response rating, Ragweed ([3]; 31 g ai/ha): 0; Plant response rating, Ryegrass, Italian ([4]; 31 g ai/ha): 0; Plant response rating, Foxtail, Giant ([5]; 31 g ai/ha): 90; Plant response rating, Pigweed ([6]; 31 g ai/ha): 0; Plant response rating, Barnyardgrass ([7]; 31 g ai/ha): 60; Plant response rating, Kochia (kochia (Kochia scoparia) [8]; 31 g ai/ha): 0; Plant response rating, Ragweed ([9]; 31 g ai/ha): 0; Plant response rating, Ryegrass, Italian ([10]; 31 g ai/ha): 20; Plant response rating, Foxtail, Giant ([11]; 31 g ai/ha): 80; Plant response rating, Pigweed ([12]; 31 g ai/ha): 0; Plant response rating, Blackgrass ([13]; 31 g ai/ha): 20; Plant response rating, Galium ([14]; 31 g ai/ha): 40; Plant response rating, Wheat ([15]; 31 g ai/ha): 0; Plant response rating, Corn (corn (Zea mays); 31 g ai/ha): 0"
